Legend:
HAdV5-GFP = assay: Plaque assay, HAdV5-GFP in 293β5 cells; type: cell-based; conditions: read-out: Percentage of plaque formation inhibition, HAdV5-GFP, 10 μM, 293β5 cell line
Procedure: 1.5. Plaque assay. For low MOI infections, active compounds were further evaluated in a plaque assay. 293β5 cells were seeded in 6-well plates at 4×10^5 cells per well in duplicate for each condition. When cells reached 80-90% confluency, they were infected with HAdV5-GFP or HAdV16-GFP (0.06 vp/cell) and rocked for 2 h at 37° C. The inoculum was removed and the cells were washed once with PBS. The cells were then carefully overlaid with 4 ml/well of equal parts of 1.6% […] Difco Agar Noble (Becton, Dickinson & Co, Sparks, MD) and 2× EMEM (BioWhittaker) supplemented with 2x penicillin/streptomycin, 2× L-glutamine and 10% FBS. The mixture also contained compound in concentrations ranging from 5 to 1 μM. Following incubation for 7 days at 37° C., plates were scanned with a Typhoon 9410 imager (GE Healthcare Life Sciences), and plaques were quantified with ImageJ.43
For the plaque assay 293β5 cells were infected with HAdV5-GFP (in the presence of compound at 10 μM) (Table 2). From this generation of compounds, our primary screening identified 4 compounds (12, 13, 22 and 25) that inhibited HAdV5-GFP plaque formation >90% compared to a control with the same volume of DMSO.

[1] = Cytotoxicity assay (alamarBlue cell viability); type: cell-based, Human; conditions: human, A549 cells
Procedure: 1.4. Cytotoxicity assay. The cytotoxicity of the compounds was measured using the AlarmBlue cell viability assay (Invitrogen) according to the manufacturer's instructions. Actively dividing A549 cells were incubated with compounds for 48 h. After the incubation the alamarBlue reagent was added to the cells ( 1/10th alamarBlue reagent in culture medium) for an extra 4 h. The 50% cell cytotoxic concentration (CC50) of the molecules was calculated according to Cheng et al.42 The selectivity index (SI) was evaluated as the ratio of CC50 to IC50, where the IC50 is defined as the concentration of compound that inhibits HAdV infection by 50%.

[2] = tested on: Acinetobacter baumannii strains resistant to colistine; assay: Screening of inhibition of bacterial growth at 50 μM; type: cell-based; conditions: 5×10^5 CFU/ml, 18 h; for Screening, growth inhibition Ab 21R: strain Ab 21R; for Screening, growth inhibition Ab 21R / Screening, growth inhibition Ab 22P: 50 μM; for Screening, growth inhibition Ab 24: strain Ab 24, 50 μM; for Screening, growth inhibition Ab 22P: strain Ab 22P
Source text: (§1) All of the strains used were Acinetobacter baumannii strains resistant to colistine: Resistance (R)≥4 Sensibility (S)≤2—All of these strains have been disclosed in Valencia R, Arroyo L A, Conde M, Aldana J M, Torres M J, Fernandez-Cuenca F, et al. Nosocomial outbreak of infection with pan-drug-resistant Acinetobacter baumannii in a tertiary care university hospital. Infection control and hospital epidemiology. 2009; 30(3):257-63. The specific strains used were the following: 1, 10, 11, 14, 16, 17, 19, 20, 21R, 22P, 24, 99 and 113.
Evaluation of the inhibition of the bacterial growth of the 4 families of piperazines derivatives was performed by using a final concentration of 50 μM of each piperazine derivative in a concentration of 5×10^5 CFU/ml of each strain of A. baumannii in 96-well plates.
These plates were incubated for 18 hours at 37° C.

[3] = tested on: Acinetobacter baumannii strains resistant to colistine; assay: Minimal inhibitory concentration (MIC), microdilution in MHBII; type: cell-based; conditions: 5×10^5 CFU/ml, 18 h; for CMI (MIC) Ab 21R: strain Ab 21R; for CMI (MIC) Ab 21R / CMI (MIC) Ab 22P: MHBII; for CMI (MIC) Ab 24: strain Ab 24, MHBII; for CMI (MIC) Ab 22P: strain Ab 22P
Source text: as §1
Microdilution in cell medium Mueller Hinton Broth II (MHBII). This technique was carried out solely in those piperazines which presented inhibitory activity in the screening study.
We used decreasing concentrations of each piperazine derivative (from 50 μM -0.05 μM) in a concentration of 5×10^5 CFU/ml of each strain of A. baumannii in 96 well plates. These plates were incubated for 18 hours at a temperature 37° C.

CC1CN(C(=O)OC(C)(C)C)CCN1C(=S)Nc1ccc([N+](=O)[O-])cc1 (stereo not drawn) [Compound 12, 4-tert-Butoxycarbonyl-2-methyl-1-[(4-nitrophenyl)aminothiocarbonyl]piperazine]
inhibition at 10 µM (HAdV5-GFP): > 90% | CC50 at 48 h ([1]; 48 h): 26.3 ± 1.59 µM

CC1CN(C(=O)OC(C)(C)C)CCN1C(=O)Nc1ccc([N+](=O)[O-])cc1 (stereo not drawn) [Compound 13, 4-tert-Butoxycarbonyl-2-methyl-1-[(4-nitrophenyl)aminocarbonyl]piperazine]
inhibition at 10 µM (HAdV5-GFP): > 90% | CC50 at 48 h ([1]; 48 h): 143 ± 3.29 µM

COc1ccc(NC(=O)N2CCN(C(=O)OC(C)(C)C)CC2C)cc1 (stereo not drawn) [Compound 14, 4-tert-Butoxycarbonyl-1-[(4-methoxyphenyl)aminocarbonyl]-2-methylpiperazine]
inhibition at 10 µM (HAdV5-GFP): 49.1 ± 1.39%

CC1CN(C(=O)C(C)(C)C)CCN1C(=S)Nc1ccc([N+](=O)[O-])cc1 (stereo not drawn) [Compound 17, 2-Methyl-1-[(4-nitrophenyl)aminothiocarbonyl]-4-pivaloylpiperazine]
inhibition at 10 µM (HAdV5-GFP): 64 ± 8.97%

CC1CN(C(=O)C(C)(C)C)CCN1C(=O)Nc1ccc([N+](=O)[O-])cc1 (stereo not drawn) [Compound 18, 2-Methyl-1-[(4-nitrophenyl)aminocarbonyl]-4-pivaloylpiperazine]
inhibition at 10 µM (HAdV5-GFP): 0%

COc1ccc(NC(=O)N2CCN(C(=O)C(C)(C)C)CC2C)cc1 (stereo not drawn) [Compound 19, 1-[(4-Methoxyphenyl)aminocarbonyl]-2-methyl-4-pivaloylpiperazine]
inhibition at 10 µM (HAdV5-GFP): 0%

COc1ccc(C(=O)N2CCN(C(=O)c3ccccc3)CC2C)cc1 (stereo not drawn) [Compound 21, 4-Benzoyl-1-(4-methoxybenzoyl)-2-methylpiperazine]
inhibition at 10 µM (HAdV5-GFP): 0%

CC1CN(C(=O)c2ccccc2)CCN1C(=S)Nc1ccc([N+](=O)[O-])cc1 (stereo not drawn) [Compound 22, 4-Benzoyl-2-methyl-1-[(4-nitrophenyl)aminothiocarbonyl]piperazine]
inhibition at 10 µM (HAdV5-GFP): > 90% | CC50 at 48 h ([1]; 48 h): 31.4 ± 2.82 µM

CC1CN(C(=O)c2ccccc2)CCN1C(=O)Nc1ccc([N+](=O)[O-])cc1 (stereo not drawn) [Compound 23, 4-Benzoyl-2-methyl-1-[(4-nitrophenyl)aminocarbonyl]piperazine]
inhibition at 10 µM (HAdV5-GFP): 71.7 ± 3.43%

COc1ccc(NC(=O)N2CCN(C(=O)c3ccccc3)CC2C)cc1 (stereo not drawn) [Compound 24, 4-Benzoyl-1-[(4-methoxyphenyl)aminocarbonyl]-2-methylpiperazine]
inhibition at 10 µM (HAdV5-GFP): 0%

CC1CN(C(=O)c2cc3ccccc3o2)CCN1C(=O)Nc1ccc([N+](=O)[O-])cc1 (stereo not drawn) [Compound 25, 4-(Benzofuran-2-carbonyl)-2-methyl-1-[(4-nitrophenyl)aminocarbonyl]piperazine]
inhibition at 10 µM (HAdV5-GFP): > 90% | CC50 at 48 h ([1]; 48 h): 51.1 ± 7.35 µM

CC1CN(C(=O)OC(C)(C)C)CCN1C(=O)Nc1ccc(Cl)cc1 (stereo not drawn) [Compound 27, 4-tert-Butoxycarbonyl-1-[(4-chlorophenyl)aminocarbonyl]-2-methylpiperazine]
inhibition at 10 µM (HAdV5-GFP): 62.03 ± 0.26% | CC50 at 48 h ([1]; 48 h): 150 ± 1.01 µM

CC1CN(C(=O)OC(C)(C)C)CCN1C(=O)Nc1ccc(C(F)(F)F)cc1 (stereo not drawn) [Compound 28, 4-tert-Butoxycarbonyl-2-methyl-1-[(4-trifluoromethylphenyl)aminocarbonyl]piperazine]
inhibition at 10 µM (HAdV5-GFP): 30.6 ± 14.6% | CC50 at 48 h ([1]; 48 h): 137 ± 24.3 µM

CC1CN(C(=O)c2cc3ccccc3o2)CCN1C(=O)Nc1ccc(Cl)cc1 (stereo not drawn) [Compound 32, 4-(Benzofuran-2-carbonyl)-1-[(4-chlorophenyl)aminocarbonyl]-2-methylpiperazine]
inhibition at 10 µM (HAdV5-GFP): 6.69 ± 11.1% | CC50 at 48 h ([1]; 48 h): 144 ± 20.8 µM

CC1CN(C(=O)c2cc3ccccc3o2)CCN1C(=O)Nc1ccc(C(F)(F)F)cc1 (stereo not drawn) [Compound 33, 4-(Benzofuran-2-carbonyl)-2-methyl-1-[(4-trifluoromethylphenyl)aminocarbonyl]piperazine]
inhibition at 10 µM (HAdV5-GFP): 91 to 100% | CC50 at 48 h ([1]; 48 h): 82.2 ± 24.3 µM

CC1CN(C(=O)c2cc3ccccc3o2)CCN1C(=O)Nc1ccc(C#N)cc1 (stereo not drawn) [Compound 34, 4-(Benzofuran-2-carbonyl)-1-[(4-cyanophenyl)aminocarbonyl]-2-methylpiperazine]
inhibition at 10 µM (HAdV5-GFP): 83.2 ± 1.55% | CC50 at 48 h ([1]; 48 h): 118 ± 30.2 µM

CC1CN(C(=O)c2cc3ccccc3o2)CCN1C(=O)Nc1ccccc1[N+](=O)[O-] (stereo not drawn) [Compound 36, 4-(Benzofuran-2-carbonyl)-2-methyl-1-[(2-nitrophenyl)aminocarbonyl]piperazine]
inhibition at 10 µM (HAdV5-GFP): 91 to 100% | CC50 at 48 h [1]: > 200 µM | CC50 at 48 h ([1]; 48 h): 203 ± 4.09 µM

CC1CN(C(=O)c2cc3ccccc3o2)CCN1C(=O)Nc1ccccc1Br (stereo not drawn) [Compound 38, 4-(Benzofuran-2-carbonyl)-1-[(2-bromophenyl)aminocarbonyl]-2-methylpiperazine]
inhibition at 10 µM (HAdV5-GFP): 55.8 ± 19.5%

COc1ccccc1NC(=O)N1CCN(C(=O)c2cc3ccccc3o2)CC1C (stereo not drawn) [Compound 40, 4-(Benzofuran-2-carbonyl)-1-[(2-methoxyphenyl)aminocarbonyl]-2-methylpiperazine]
inhibition at 10 µM (HAdV5-GFP): 16.4 ± 5.81%

CC1CN(C(=O)c2cc3ccccc3o2)CCN1C(=O)Nc1ccccc1 (stereo not drawn) [Compound 41, 4-(Benzofuran-2-carbonyl)-2-methyl-1-(phenylaminocarbonyl)piperazine]
inhibition at 10 µM (HAdV5-GFP): 11.2 ± 26.5%

CC(C)(C)OC(=O)N1CCN(C(=O)Nc2ccc(Cl)cc2)C(c2ccccc2)C1 (stereo not drawn) [Compound 47, 4-tert-Butoxycarbonyl-1-[(4-chlorophenyl)aminocarbonyl]-2-phenylpiperazine]
inhibition at 10 µM (HAdV5-GFP): 86.3 ± 6.35% | CC50 at 48 h ([1]; 48 h): 17.1 ± 4.24 µM

CC(C)(C)OC(=O)N1CCN(C(=O)Nc2ccc(C(F)(F)F)cc2)C(c2ccccc2)C1 (stereo not drawn) [Compound 48, 4-tert-Butoxycarbonyl-2-phenyl-1-[(4-trifluoromethylphenyl)aminocarbonyl]piperazine]
inhibition at 10 µM (HAdV5-GFP): 71.51 ± 0.11% | CC50 at 48 h ([1]; 48 h): 42.1 ± 28.6 µM

CC(C)(C)OC(=O)N1CCN(C(=O)Nc2ccc(F)cc2)C(c2ccccc2)C1 (stereo not drawn) [Compound 49, 4-tert-Butoxycarbonyl-1-[(4-fluorophenyl)aminocarbonyl]-2-phenylpiperazine]
inhibition at 10 µM (HAdV5-GFP): 75.84 ± 0.49% | CC50 at 48 h ([1]; 48 h): 110 ± 8.09 µM

CC(C)(C)OC(=O)N1CCN(C(=O)Nc2ccc(C#N)cc2)C(c2ccccc2)C1 (stereo not drawn) [Compound 50, 4-tert-Butoxycarbonyl-1-[(4-cyanophenyl)aminocarbonyl]-2-phenylpiperazine]
inhibition at 10 µM (HAdV5-GFP): 67.2 ± 16.5% | CC50 at 48 h ([1]; 48 h): 91.3 ± 61.5 µM

C[C@@H]1CN(C(=O)OC(C)(C)C)CCN1C(=S)Nc1cc(C(F)(F)F)cc(C(F)(F)F)c1 [Compound R-592]
Screening, growth inhibition Ab 21R [2]: <50 µM | CMI (MIC) Ab 21R [3]: 3.12 µM

C[C@@H]1CN(C(=O)CC2CCCCC2)CCN1C(=S)Nc1cc(C(F)(F)F)cc(C(F)(F)F)c1 [Compound R-615]
Screening, growth inhibition Ab 24 [2]: <50 µM | CMI (MIC) Ab 24 [3]: 6.25 µM

C[C@H]1CN(C(=O)OC(C)(C)C)CCN1C(=S)Nc1cc(C(F)(F)F)cc(C(F)(F)F)c1 [Compound S-592]
Screening, growth inhibition Ab 21R [2]: <50 µM | Screening, growth inhibition Ab 22P [2]: <50 µM | Screening, growth inhibition Ab 24 [2]: <50 µM | CMI (MIC) Ab 21R [3]: 3.12 µM | CMI (MIC) Ab 22P [3]: 12.5 µM | CMI (MIC) Ab 24 [3]: 3.12 µM

CC1CN(C(=O)OC(C)(C)C)CCN1C(=S)Nc1ccc([N+](=O)[O-])cc1 (stereo not drawn) [Vip 499]
Screening, growth inhibition Ab 14 ([2]; strain Ab 14, 50 μM): <50 µM | Screening, growth inhibition Ab 21R [2]: <50 µM | Screening, growth inhibition Ab 22P [2]: <50 µM | Screening, growth inhibition Ab 24 [2]: <50 µM | CMI (MIC) Ab 14 ([3]; strain Ab 14, MHBII): 25 µM | CMI (MIC) Ab 21R [3]: 50 µM | CMI (MIC) Ab 22P [3]: 25 µM | CMI (MIC) Ab 24 [3]: 25 µM
